Our source for the melting point values is patent US8183262B2, “Pyridine derivatives as mGluR2 antagonists” (Hoffmann-La Roche Inc., priority 2007, dated 2012).

The structures appear in SMILES notation.

Molecule `NS(=O)(=O)c1ccc(-c2cc(-c3nc(-c4ccc(C(F)(F)F)cc4)cc(C(F)F)n3)ccn2)s1` [Example 458, 5-{4-[4-Difluoromethyl-6-(4-trifluoromethyl-phenyl)-pyrimidin-2-yl]-pyridin-2-yl}-thiophene-2-sulfonic acid amide] showed a melting point of 242 °C.
Molecule `Cc1cc(-c2ccc(Cl)cc2)nc(-c2cccc(-c3cccc(S(N)(=O)=O)c3)c2)n1` [Example 166, 3′-[4-(4-Chloro-phenyl)-6-methyl-pyrimidin-2-yl]-biphenyl-3-sulfonic acid amide] registered a melting point of 221 °C.
For the molecule `NS(=O)(=O)c1ccc(-c2cc(-c3nc(-c4ccc(C(F)(F)F)cc4)cc(C(F)(F)F)n3)ccn2)s1` [Example 164, 5-{4-[4-Trifluoromethyl-6-(4-trifluoromethyl-phenyl)-pyrimidin-2-yl]-pyridin-2-yl}-thiophene-2-sulfonic acid amide], the melting point is 262 °C.
`Cc1cc(-c2ccc(Cl)cc2)nc(-c2ccnc(-c3ccc(S(N)(=O)=O)s3)c2)n1` [Example 192, 5-{4-[4-(4-Chloro-phenyl)-6-methyl-pyrimidin-2-yl]-pyridin-2-yl}-thiophene-2-sulfonic acid amide] showed a melting point of 232.5 °C.
`O=S(=O)(NCc1ccccc1)c1cccc(-c2cc(-c3nc(-c4ccc(C(F)(F)F)cc4)cc(C(F)(F)F)n3)ccn2)c1` [Example 405, N-Benzyl-3-{4-[4-trifluoromethyl-6-(4-trifluoromethyl-phenyl)-pyrimidin-2-yl]-pyridin-2-yl}-benzenesulfonamide] returned a melting point of 202.5 °C.
In the case of `Nc1ccc(-c2cccc(-c3nc(-c4ccc(Cl)c(Cl)c4)cc(C(F)(F)F)n3)c2)cn1` [Example 97, 5-{3-[4-(3,4-Dichloro-phenyl)-6-trifluoromethyl-pyrimidin-2-yl]-phenyl}-pyridin-2-ylamine], the melting point was determined as 179 °C.
`NS(=O)(=O)c1cnc(-c2cn(-c3nc(-c4ccc(C(F)(F)F)cc4)cc(C(F)(F)F)n3)cn2)s1` [Example 181, 2-{1-[4-Trifluoromethyl-6-(4-trifluoromethyl-phenyl)-pyrimidin-2-yl]-1H-imidazol-4-yl}-thiazole-5-sulfonic acid amide]: the melting point is 264 °C.
`Nc1ccc(-c2cn(-c3nc(-c4ccc(F)cc4)cc(C(F)(F)F)n3)cn2)cn1` [Example 378, 5-{1-[4-(4-Fluoro-phenyl)-6-trifluoromethyl-pyrimidin-2-yl]-1H-imidazol-4-yl}-pyridin-2-ylamine]: the melting point came to 249.5 °C.
`Cc1cc(-c2ccc(C(F)(F)F)cc2)cc(-c2cccc(-c3cccc(S(=O)(=O)NCc4ccccc4)c3)n2)n1` [Example 431, N-Benzyl-3-[6′-methyl-4′-(4-trifluoromethyl-phenyl)-[2,2′]bipyridinyl-6-yl]-benzenesulfonamide]: the melting point came out at 168 °C.
In turn, `Nc1ccc(-c2cccc(-c3nc(-c4ccc(C(F)(F)F)c(OCC(F)(F)F)c4)cc(C(F)(F)F)n3)c2)cn1` [Example 133, 5-(3-{4-[3-(2,2,2-Trifluoro-ethoxy)-4-trifluoromethyl-phenyl]-6-trifluoromethyl-pyrimidin-2-yl}-phenyl)-pyridin-2-ylamine] came in with a melting point of 220 °C.
Take `COc1ccc(CNS(=O)(=O)c2cccc(-c3cccc(-c4cc(-c5ccc(C(F)(F)F)cc5)cc(C)n4)n3)c2)cc1` [Example 432, N-(4-Methoxy-benzyl)-3-[6′-methyl-4′-(4-trifluoromethyl-phenyl)-[2,2′]bipyridinyl-6-yl]-benzenesulfonamide]: the melting point is 126 °C (dec.).
As to `NS(=O)(=O)c1ccc(-c2cc(-c3nc(-c4ccc(Cl)cc4)cc(C(F)(F)F)n3)ccn2)s1` [Example 170, 5-{4-[4-(4-Chloro-phenyl)-6-trifluoromethyl-pyrimidin-2-yl]-pyridin-2-yl}-thiophene-2-sulfonic acid amide], the melting point worked out at 290 °C.

For orientation: melting point means the temperature, or range, at which the solid turns liquid.
